Among the data in patent publication US20210400977A1, “META-DIAMIDE COMPOUNDS FOR CONTROLLING INVERTEBRATE PESTS” (FMC Corporation, priority 2018, published 2021) are mortality values, retold here.

A value given as a limit tells only on which side of the number the result lay.

Common to all, as to format: in vivo
The test system of assay [1] is potato leafhopper (Empoasca fabae (Harris)). The experiment in a line: Test D: control of potato leafhopper through contact and/or systemic means. The conditions noted are these: 144 h, assessed after 6 days; for mortality at 50 ppm: sprayed at 50 ppm; for mortality at 250 ppm: sprayed at 250 ppm. The protocol: (§1) Test compounds were formulated using a solution containing 10% acetone, 90% water and 300 ppm Activator 90® non-ionic surfactant (Loveland Products, Loveland, Colo., USA). The formulated compounds were applied in 1 mL of liquid through an atomizer nozzle positioned 1.27 cm (0.5 inches) above the top of each test unit. Test compounds were sprayed at the rates indicated, and each test was replicated three times.
For evaluating control of potato leafhopper (Empoasca fabae (Harris)) through contact and/or systemic means, the test unit consisted of a small open container with a 5-6-day-old Soleil bean plant (primary leaves emerged) inside. White sand was added to the top of the soil, and one of the primary leaves was excised prior to application of the test compound.
Test compounds were formulated and sprayed at 250 and/or 50 ppm. After spraying of the formulated test compound, the test units were allowed to dry for 1 hour before they were post-infested with 5 potato leafhoppers (18-to-21-day-old adults). A black, screened cap was placed on the top of the test unit, and the test units were held for 6 days in a growth chamber at 20° C. and 70% relative humidity. Each test unit was then visually assessed for insect mortality.

In assay [2] the test system is green peach aphid (Myzus persicae (Sulzer)). The assay can be described thus: Test E: control of green peach aphid through contact and/or systemic means. Conditions: 144 h, assessed after 6 days; for mortality at 50 ppm: sprayed at 50 ppm; for mortality at 250 ppm: sprayed at 250 ppm. The protocol:
as §1
For evaluating control of green peach aphid (Myzus persicae (Sulzer)) through contact and/or systemic means, the test unit consisted of a small open container with a 12-15-day-old radish plant inside. This was pre-infested by placing on a leaf of the test plant 30-40 aphids on a piece of leaf excised from a culture plant (cut-leaf method). The aphids moved onto the test plant as the leaf piece desiccated. After pre-infestation, the soil of the test unit was covered with a layer of sand.
Test compounds were formulated and sprayed at 250 and/or 50 ppm. After spraying of the formulated test compound, each test unit was allowed to dry for 1 hour and then a black, screened cap was placed on top. The test units were held for 6 days in a growth chamber at 19-21° C. and 50-70% relative humidity. Each test unit was then visually assessed for insect mortality.

In assay [3] the test system is cotton melon aphid (Aphis gossypii (Glover)). The experiment in a line: Test F: control of cotton melon aphid through contact and/or systemic means. The conditions noted are these: 144 h, assessed after 6 days; for mortality at 50 ppm: sprayed at 50 ppm; for mortality at 250 ppm: sprayed at 250 ppm.
For assay [4], the system named is sweetpotato whitefly (Bemisia tabaci (Gennadius)). The assay can be described thus: Test G: control of sweetpotato whitefly through contact and/or systemic means. Conditions: 312 h, assessed after 13 days; for mortality at 50 ppm: sprayed at 50 ppm; for mortality at 250 ppm: sprayed at 250 ppm. As for the experimental part: as §1
For evaluating control of the sweetpotato whitefly (Bemisia tabaci (Gennadius)) through contact and/or systemic means, the test unit consisted of a small open container with a 12-14-day-old cotton plant or 7-9-day-old soybean plant inside. Prior to the spray application, both cotyledons were removed from the plant, leaving one true leaf for the assay. Adult whiteflies were allowed to lay eggs on the plant and then were removed from the test unit. Cotton or soybean plants infested with at least 15 eggs were submitted to the test for spraying.
Test compounds were formulated and sprayed at 250 and/or 50 ppm. After spraying, the test units were allowed to dry for 1 hour. The cylinders were then removed, and the units were taken to a growth chamber and held for 13 days at 28° C. and 50-70% relative humidity. Each test unit was then visually assessed for insect mortality.

With `O=C(Nc1ccc(Cl)c(CNC(=O)C(F)(F)F)c1)C1C(c2ccc(F)c(Cl)c2)C1(Cl)Cl` (stereo not shown) [Compound 19, 2,2-dichloro-3-(3-chloro-4-fluorophenyl)-N-[4-chloro-3-[[(2,2,2-trifluoroacetyl)amino]methyl]phenyl]cyclopropanecarboxamide], the mortality at 50 ppm in assay [1] is ≥ 80%; in assay [2] it was ≥ 80%; in assay [3] it was ≥ 80%; in assay [4] it was ≥ 70%. The mortality at 250 ppm in assay [1] was ≥ 80%; in assay [2], ≥ 80%; in assay [3] it was ≥ 80%; in assay [4] it was ≥ 70%.
`O=C(NCc1cc(NC(=O)C2C(c3ccc(F)c(C(F)(F)F)c3)C2(Cl)Cl)ccc1Cl)C1CC1` (stereo not shown) [Compound 39, 2,2-dichloro-N-[4-chloro-3-[[(cyclopropylcarbonyl)amino]methyl]phenyl]-3-[4-fluoro-3-(trifluoromethyl)phenyl]cyclopropanecarboxamide]: the mortality at 50 ppm in assay [1] is ≥ 80%; in assay [2] it was ≥ 80%; in assay [3], ≥ 80%; in assay [4] it was ≥ 70%. Moreover, the mortality at 250 ppm is ≥ 80% in assay [1], ≥ 80% in assay [2], ≥ 80% in assay [3] and ≥ 70% in assay [4].
For `CC(=O)NCc1cc(NC(=O)C2C(c3cc(Cl)cc(Cl)c3)C2(F)F)ccc1Cl` (stereo not shown) [Compound 47], the mortality at 50 ppm in assay [1] and in assay [3] was ≥ 80% in each case. Moreover, the mortality at 250 ppm in assay [1], in assay [2] and in assay [3] was ≥ 80% in each case.
As to `O=C(NCc1cc(NC(=O)C2C(c3cc(Cl)cc(Cl)c3)C2(F)F)ccc1Cl)C1CC1` (stereo not shown) [Compound 48], in assay [1], the mortality at 50 ppm was ≥ 80% and the mortality at 250 ppm was ≥ 80%. The mortality at 250 ppm in assay [3] is ≥ 80%.
Consider `CCC(=O)NCc1cc(NC(=O)C2C(c3cc(Cl)cc(Cl)c3)C2(Cl)Cl)ccc1F` (stereo not shown) [Compound 55, 2,2-dichloro-3-(3,5-dichlorophenyl)-N-[4-fluoro-3-[(propanoylamino)methyl]phenyl]cyclopropane-1-carboxamide], for which the mortality at 50 ppm in assay [1], in assay [2] and in assay [3] was ≥ 80% throughout. Besides, the mortality at 250 ppm in assay [1], in assay [2] and in assay [3] was ≥ 80% throughout.
As for `O=C(NCc1cc(NC(=O)C2C(c3cc(Cl)cc(Cl)c3)C2(Cl)Cl)ccc1Cl)C1CC1` (stereo not shown) [Compound 62, 2,2-dichloro-N-[4-chloro-3-[(cyclopropanecarbonylamino)methyl]phenyl]-3-(3,5-dichlorophenyl)cyclopropane-1-carboxamide], the mortality at 50 ppm in assay [1], in assay [2] and in assay [3] was ≥ 80% each time. In addition, the mortality at 250 ppm in assay [1] is ≥ 80%; in assay [2] it was ≥ 80%; in assay [3], ≥ 80%; in assay [4], ≥ 70%.
In the case of `O=C(NCc1cc(NC(=O)C2C(c3ccc(F)c(C(F)(F)F)c3)C2(Cl)Cl)ccc1F)C1CC1` (stereo not shown) [Compound 77, 2,2-dichloro-N-[3-[[(cyclopropylcarbonyl)amino]methyl]-4-fluorophenyl]-3-[4-fluoro-3-(trifluoromethyl)phenyl]cyclopropanecarboxamide], the mortality at 50 ppm in assay [1] was ≥ 80%; in assay [2], ≥ 80%; in assay [3] it was ≥ 80%; in assay [4], ≥ 70%. Further, in assay [4], the mortality at 250 ppm is ≥ 70%.
As to `O=C(CC(F)(F)F)NCc1cc(NC(=O)C2C(c3ccc(F)c(C(F)(F)F)c3)C2(Cl)Cl)ccc1F` (stereo not shown) [Compound 78, 2,2-dichloro-3-[4-fluoro-3-(trifuoromethyl)phenyl]-N-[4-fluoro-3-[[(3,3,3-trifluoro-1-oxopropyl)amino]methyl]phenyl]cyclopropanecarboxamide], the mortality at 50 ppm in assay [1] is ≥ 80%; in assay [2], ≥ 80%; in assay [3], ≥ 80%; in assay [4], ≥ 70%.
Regarding `O=C(CC(F)(F)F)NCc1cc(NC(=O)C2C(c3ccc(Cl)c(Cl)c3)C2(Cl)Cl)ccc1F` (stereo not shown) [Compound 79, 2,2-dichloro-3-(3,4-dichlorophenyl)-N-[4-fluoro-3-[[(3,3,3-trifluoro-1-oxopropyl)amino]methyl]phenyl]cyclopropanecarboxa-mide], the mortality at 50 ppm in assay [1] and in assay [3] was ≥ 80% each time. In addition, the mortality at 250 ppm in assay [4] is ≥ 70%.
`CCC(=O)NC(C)c1cc(NC(=O)C2C(c3cc(Cl)cc(Cl)c3)C2(Cl)Cl)ccc1Cl` (stereo not shown) [Compound 86]: the mortality at 50 ppm in assay [1] is ≥ 80%.
Same read-out and setting: for `CC(NC(=O)C1CC1)c1cc(NC(=O)C2C(c3cc(Cl)cc(Cl)c3)C2(Cl)Cl)ccc1Cl` (stereo not shown) [Compound 87] the value was ≥ 80%.
On the same count and under the same terms, for `O=C(CC(F)(F)F)NCc1cc(NC(=O)C2C(c3ccc(F)c(C(F)(F)F)c3)C2(Cl)Cl)ccc1Cl` (stereo not shown) [Compound 116, 2,2-dichloro-N-[4-chloro-3-[[(3,3,3-trifluoro-1-oxopropyl)amino]methyl]phenyl]-3-[4-fluoro-3-(trifluoromethyl)phenyl]cyclopropanecarboxamide] the value was ≥ 80%.
Consider `O=C(CC(F)(F)F)NCc1cc(NC(=O)C2C(c3cc(F)c(F)c(F)c3)C2(Cl)Cl)ccc1Cl` (stereo not shown) [Compound 118, 2,2-dichloro-N-[4-chloro-3-[[(3,3,3-trifluoro-1-oxopropyl)amino]methyl]phenyl]-3-(3,4,5-trifluorophenyl)cyclopropanecarboxamide], for which the mortality at 50 ppm in assay [1] was ≥ 80%. For the same compound, the mortality at 250 ppm in assay [4] was ≥ 70%.
Take `O=C(CC(F)(F)F)NCc1cc(NC(=O)C2C(c3cc(F)cc(Cl)c3)C2(Cl)Cl)ccc1F` (stereo not shown) [Compound 129, 2,2-dichloro-3-(3-chloro-5-fluorophenyl)-N-[4-fluoro-3-[[(3,3,3-trifluoro-1-oxopropyl)amino]methyl]phenyl]cyclopropanecarboxamide]: the mortality at 50 ppm in assay [1] was ≥ 80%; in assay [2] it was ≥ 80%; in assay [3], ≥ 80%; in assay [4], ≥ 70%. Further, in assay [4], the mortality at 250 ppm was ≥ 70%.
On to `O=C(NCc1cc(NC(=O)C2C(c3cc(Cl)cc(Cl)c3)C2(Cl)Cl)ccc1Cl)C1CC1` (stereo not shown) [Compound 148], for which the mortality at 50 ppm in assay [4] is ≥ 70%.
Consider `O=C(NCc1c(F)ccc(NC(=O)C2C(c3ccc(F)c(Cl)c3)C2(Cl)Cl)c1F)C1CC1` (stereo not shown) [Compound 164, 2,2-dichloro-3-(3-chloro-4-fluorophenyl)-N-[3-[[(cyclopropylcarbonyl)amino]methyl]-2,4-difluorophenyl]cyclopropanecarboxamide], for which the mortality at 50 ppm in assay [1] is ≥ 80%.
Consider `O=C(CC(F)(F)F)NCc1cc(NC(=O)C2C(c3cc(F)c(Cl)c(F)c3)C2(Cl)Cl)ccc1F` (stereo not shown) [Compound 169, 2,2-dichloro-3-(4-chloro-3,5-difluorophenyl)-N-[4-fluoro-3-[[(3,3,3-trifluoro-1-oxopropyl)amino]methyl]phenyl]cyclopropanecarboxamide], for which the mortality at 50 ppm in assay [1], in assay [2] and in assay [3] was ≥ 80% throughout.
As to `O=C(CC(F)(F)F)NCc1c(F)ccc(NC(=O)C2C(c3ccc(F)c(Cl)c3)C2(Cl)Cl)c1F` (stereo not shown) [Compound 170, 2,2-dichloro-3-(3-chloro-4-fluorophenyl)-N-[2,4-difluoro-3-[[(3,3,3-trifluoro-1-oxopropyl)amino]methyl]phenyl]cyclopropanecarboxamide], the mortality at 50 ppm in assay [1], in assay [2] and in assay [3] was ≥ 80% in each case.
With `O=C(Nc1ccc(Cl)c(CNC(=O)C(F)(F)F)c1)C1C(c2ccc(Cl)c(Cl)c2)C1(Cl)Cl` (stereo not shown) [Compound 175, 2,2-dichloro-N-[4-chloro-3-[[(2,2,2-trifluoroacetyl)amino]methyl]phenyl]-3-(3,4-dichlorophenyl)cyclopropanecarboxamide], the mortality at 50 ppm in assay [1], in assay [2] and in assay [3] was ≥ 80% throughout.

Broadly, the mortality is the percentage killed.
